Assay results: patent publication US8822482B2, “Icotinib hydrochloride, synthesis, crystalline forms, pharmaceutical compositions, and uses thereof” (Beta Pharma, Inc., priority 2008, dated 2014)

Legend:
[1] = system: EGFR tyrosine kinase-mediated intracellular protein tyrosine phosphorylation in A431 cells; test: Inhibition of EGFR-mediated protein phosphorylation at the cellular level (A431 cells, EGF-stimulated, anti-phosphotyrosine blot); type: cell-based; settings: Homo sapiens
Method: Methods: The experiment utilized a high EGFR-expressing cell line, A431 (human epidermoid carcinoma). A431 cells in logarithmic growth phase were seeded into 12-well cell culture plates (5×10^5 cells/well); the cells were grown in DMEM cell culture medium (Gibco Company) containing 10% fetal calf serum (FCS) at 37° C. in 5% CO2 for 18 hours. The cells were washed twice with PBS buffer, and DMEM without FCS was then added. After incubating for 18 hours, Icotinib hydrochloride Crystalline Form I in dimethyl sulfoxide (DMSO) was added to individual wells at final concentrations of 0, 10, 50, 250 or 1000 nM. After incubating at 37° C. for 2.5 hours, 100 ng/ml of EGF was added to stimulate the cells for 5 minutes. Cells were then extracted in the presence 1 mM vanadate (inhibits dephosphorylation) to collect total cellular proteins, and proteins were resolved by 10% SDS-PAGE and transferred to nitrocellulose. Following detection of phosphorylated proteins with anti-phosphotyrosine antibodies (PY99 and 4G10, Upstate Biotech) and visualization with a horseradish peroxidase-labeled second antibody (Transduction Laboratories, Inc.) and ECL chemiluminescence (Amersham Corp.), bands were quantified by densitometry. Membranes were then stripped and incubated with anti-EGFR antibodies to compare amounts of EGFR in cells exposed to different concentrations of Icotinib hydrochloride Crystalline Form I as an internal control. Inhibition (%)=(1−kinase activity of the test group/kinase activity of control group)×100%

[2] = system: drug metabolism enzymes
[3] = system: advanced non-small cell lung cancer (NSCLC); test: Phase IIa clinical trial in advanced NSCLC patients; type: in vivo, human
From the text: Definitions of terms used: PR: partial remission, CR: complete remission, SD: stable disease, PD: progression of disease, ORR: objective response rate, DCR: disease control rate.

[4] = Phase I clinical safety study, single doses of tablets; type: in vivo, human; settings: 25-1025 mg single doses, 76 subjects
[5] = Pharmacology and toxicology experiments, safety pharmacology; type: in vivo, Beagle dogs, mice, and rats
Method: Pharmacology and toxicology experiments in Beagle dogs, mice, and rats using Icotinib hydrochloride Crystalline Form I were also conducted.

[6] = system: P450 enzymes; test: Induction of P450 enzymes in rat liver; type: in vivo
Method: (§1) In addition, non-clinical pharmacokinetic studies of Icotinib hydrochloride Crystalline Form I in Beagle dogs and rats were conducted.

[7] = Pharmacokinetic study of the different crystalline forms and the free base in rats; type: in vivo, Wistar rats; settings: for The area under the concentration-time curve (0-infinity) / The area under the concentration-time curve (0-t): fasted Wistar rats, oral suspension, dose equivalent to 35 mg/kg Icotinib hydrochloride, plasma, hydrochloride
Method: Drugs and reagents: Icotinib (free base) and Icotinib hydrochloride crystalline forms I, II, III, and IV were ground to fine particles. The material content (purity) was not less than 99.0%. Sodium carboxymethyl cellulose was medical supply graded. Experimental animals: Wistar rats, male and female, 150-220 g each. Pharmaceutical preparation: Weigh the appropriate amount of each substance and add sodium carboxymethyl cellulose to 0.5%. Prepare a suspension at a final concentration of 3.5 mg/mL in water. Administration and sample collection: Each suspension was administered orally to fasted Wistar rats at a dose equivalent to 35 mg/kg Icotinib hydrochloride in a dose volume of 10 ml/kg. […] After purification, samples were analyzed by high performance liquid chromatography. The chromatographic conditions utilized C18-silane bonded silica as stationary phase, 0.02 mol/L of sodium dihydrogen phosphate in acetonitrile (40:60, using sodium hydroxide solution to adjust pH to 5.0) as the mobile phase and a detection wavelength of 334 nm.

[8] = in vivo
Method: as §1

[9] = 225 mg/day (75 mg, 3 times a day)
[10] = 300 mg/day (100 mg, 3 times a day)
[11] = 300 mg/day (150 mg, Twice a day)
[12] = 375 mg/day (125 mg, 3 times a day)
[13] = 400 mg/day (200 mg, Twice a day)
[14] = 450 mg/day (150 mg, 3 times a day)
[15] = 600 mg/day (200 mg, 3 times a day)

## C#Cc1cccc(Nc2ncnc3cc4c(cc23)OCCOCCOCCO4)c1.Cl [4-[(3-ethynyl-phenyl)amino]-6,7-benzo-12-crown-quinazoline hydrochloride]
[1]; A-431, read-out: median effective concentration (EC50)
  EC50: ~50 nM
[1]; A-431, A431 cells, 10 nM, read-out: inhibition of EGF-induced intracellular protein tyrosine phosphorylation
  inhibition at 0.01 µM: 5.4%
[1]; A-431, A431 cells, 50 nM, read-out: inhibition of EGF-induced intracellular protein tyrosine phosphorylation
  inhibition at 0.05 µM: 52.9%
[1]; A-431, A431 cells, 250 nM, read-out: inhibition of EGF-induced intracellular protein tyrosine phosphorylation
  inhibition at 0.25 µM: 61.9%
[1]; A-431, A431 cells, 1000 nM, read-out: inhibition of EGF-induced intracellular protein tyrosine phosphorylation
  inhibition at 1 µM: 63.7%
[2]
  inhibitory activity on drug metabolism enzymes: no inhibitory activity
[3]; [9]
  CR (complete remission), number of patients: 0
  DCR (disease control rate): 85.70%
  ORR (objective response rate): 0.00%
  PD (progression of disease), number of patients: 1
  PR (partial remission), number of patients: 0
[3]; [10]
  CR (complete remission), number of patients: 2
  DCR (disease control rate): 62.96%
  ORR (objective response rate): 25.93%
  PD (progression of disease), number of patients: 10
  PR (partial remission), number of patients: 5
[3]; [11]
  CR (complete remission), number of patients: 1
  DCR (disease control rate): 69.57%
  ORR (objective response rate): 30.43%
  PD (progression of disease), number of patients: 4
  PR (partial remission), number of patients: 6
[3]; [12]
  CR (complete remission), number of patients: 0
  DCR (disease control rate): 91.70%
  ORR (objective response rate): 37.50%
  PD (progression of disease), number of patients: 2
  PR (partial remission), number of patients: 9
[3]; [13]
  CR (complete remission), number of patients: 0
  DCR (disease control rate): 55.56%
  ORR (objective response rate): 0.00%
  PD (progression of disease), number of patients: 3
  PR (partial remission), number of patients: 0
[3]; [14]
  CR (complete remission), number of patients: 0
  DCR (disease control rate): 90.10%
  ORR (objective response rate): 45.45%
  PD (progression of disease), number of patients: 1
  PR (partial remission), number of patients: 5
[3]; [15]
  CR (complete remission), number of patients: 0
  DCR (disease control rate): 66.67%
  ORR (objective response rate): 0.00%
  PD (progression of disease), number of patients: 1
[3]; advanced NSCLC patients, oral tablets
  treatment of non-small cell lung cancer (in words): effective
[4]
  clinical safety of single doses: safe
[5]; Beagle dogs, mice, and rats
  bone marrow toxicity: no bone marrow toxicity
  liver toxicity: reversible liver toxicity
  oral toxicity: low oral toxicity
[5]; additional toxicity testing
  teratogenic, mutagenic and reproductive toxicity: no teratogenic, mutagenic and reproductive toxicity
[5]; safety pharmacological test
  effect on autonomic nervous system activity or the central nervous system: no effect
  effect on respiration, blood pressure and circulatory function: no effect
[6]
  induction effect on P450 enzymes: No significant induction effect
[7]; Wistar rats, oral, 35 mg/kg equivalent
  area under the concentration-time curve (0-t) and (0-infinity) relative to the free base form: approximately 3 times
[7]; listed as Crystalline Form I
  The area under the concentration-time curve (0-infinity): 93.73
  The area under the concentration-time curve (0-t): 91.80
[7]; listed as Crystalline Form II
  The area under the concentration-time curve (0-infinity): 90.77
  The area under the concentration-time curve (0-t): 88.28
[7]; listed as Crystalline Form III
  The area under the concentration-time curve (0-infinity): 90.26
  The area under the concentration-time curve (0-t): 89.23
[7]; listed as Crystalline Form IV
  The area under the concentration-time curve (0-infinity): 90.23
  The area under the concentration-time curve (0-t): 86.29
[8]
  route of elimination: mainly through fecal excretion
  tissue distribution: widely distributed to various tissues, but was low in brain tissue
[8]; Beagle (dogs), rat, dog, po
  Tmax: ~1 h
  bioavailability: 27 to 62%
